According to patent publication US10800784B2, “Nitrogen-containing heterocyclic amide compound and pharmaceutical use thereof” (Japan Tobacco Inc., priority 2018, dated 2020):

Key:
human PDHK1 (hPDHK1) = human PDHK1 (hPDHK1) (Homo sapiens (Human), UniProt Q15118); experiment: Inhibitory action of PDHK1 activity in vitro (residual PDH activity after PDHK reaction); type: biochemical; details: for IC50: PDH/hPDHK1 complex solution, PDHK reaction at room temperature for 45 min, NADH absorbance at 340 nm, read-out: hPDK1 IC50; for inhibition at 0.003 µM: at 3 nmol/L, shown when IC50 value could not be calculated, read-out: hPDHK1 inhibitory rate at the lowest concentration of the test compound
Procedure: (§1) The inhibitory action of PDHK activity was assessed indirectly by measuring the residual PDH activity after PDHK reaction in the presence of a test compound.
(Inhibitory Action of PDHK1 Activity)
In the case of human PDHK1 (hPDHK1, NCBI Reference Database Accession number NM_002610.3), a 1.3 kbp fragment encoding this protein was isolated from human liver cDNA by polymerase chain reaction (PCR). Modified hPDHK1 cDNA wherein FLAG-Tag sequence was added to the N terminus was prepared by PCR and ligated to the NdeI/EcoRI site of pET-17b vector (Merck MGaA, model number 69663-3). The recombinant construct was transformed into Escherichia coli DH5a (TOYOBO, model number DNA-903). The recombinant clones were identified, and plasmid DNA was isolated and subjected to the DNA sequence analysis. One clone which had the expected nucleic acid sequence was selected for expression work.
For expression of hPDHK1 activity, Escherichia coli strain BL21(DE3) cells (Merck KGaA, model number 69450-4) were transformed with the pET17b vector containing modified hPDHK1 cDNA. The Escherichia coli were grown to an optical density 0.6 ([…]) at 30° C. Protein expression was induced by the addition of 500 μmol/L isopropyl-β-thiogalactopyranoside. The Escherichia coli were cultured at 20° C. for 17-18 hr and harvested by centrifugation.
The harvested Escherichia coli was resuspended in a suspension buffer (20 mmol/L N-(2-hydroxyethyl)piperazine-N′-2-ethanesulfonic acid-sodium hydroxide (HEPES-NaOH), 500 mmol/L sodium chloride, 1% ethylene glycol, and 0.1% polyoxyethylene-polyoxypropylene block copolymer (Pluronic F-68), complete, EDTA-free (pH 8.0)) and disrupted by a microfluidizer M-110H (MIZUHO INDUSTRIAL CO., LTD.) or ultrasonication. The precipitate was removed by centrifugation and the supernatant was added to DDDDK-tagged Protein PURIFICATION GEL (MBL, model number 3329). DDDDK-tagged Protein PURIFICATION GEL was washed with a washing buffer (20 mmol/L HEPES-NaOH, 500 mmol/L sodium chloride, 1% ethylene glycol, 0.1% pluronic F-68 (pH 8.0)) and the bound protein was eluted with elution buffer 1 (20 mmol/L HEPES-NaOH, 100 μg/mL peptide (amino acid sequence DYKDDDDK) (SEQ ID NO: 1), 500 mmol/L sodium chloride, 1% ethylene glycol, 0.1% pluronic F-68 (pH 8.0)).
The eluted fractions containing FLAG-Tagged protein were pooled, concentrated by an ultrafiltration method, added to a gel filtration column (HiLoad 26/60 Superdex 200 (GE Healthcare, model number 17-1070-01)), and eluted with elution buffer 2 (20 mmol/L HEPES-NaOH, 150 mmol/L sodium chloride, 0.5 mmol/L ethylenediaminetetraacetic acid (EDTA), 1% ethylene glycol, 0.1% pluronic F-68 (pH 8.0)). The eluted fractions were pooled and preserved at −80° C.
(§2) 0.025 U/mL PDH (porcine heart PDH complex, Sigma P7032) and 0.5 μg/mL hPDHK1 were mixed in an assay buffer (50 mmol/L 3-morpholinopropanesulfonic acid (pH 7.0), 20 mmol/L dipotassium hydrogen phosphate, 60 mmol/L potassium chloride, 2 mmol/L magnesium chloride, 0.4 mmol/L EDTA, 0.2% poloxamer, 2 mmol/L dithiothreitol), and the mixture was incubated at 4° C. overnight to obtain a PDH/hPDHK1 complex solution. In the assay buffer, 0.025 U/mL PDH was mixed and incubated at 4° C. overnight to prepare a PDH solution.
The test compounds were diluted with dimethyl sulfoxide (DMSO). To measure an inhibitory action of the test compound on the PDHK activity in the PDH/hPDHK1 complex solution, PDH/hPDHK1 complex solution (20 μL), test compound (1.5 μL) and 0.353 μmol/L ATP (diluted with assay buffer) (8.5 μL) were added to a 384 well microplate (Greiner Bio-One 781801) and PDHK reaction was performed at room temperature for 45 min (test compound well). DMSO (1.5 μL) was added to control wells instead of test compound. In addition, DMSO (1.5 μL) was added to blank wells instead of the test compound, and PDH solution was added instead of the PDH/hPDHK1 complex solution. […]

human PDHK2 (hPDHK2) = human PDHK2 (hPDHK2) (Homo sapiens (Human), UniProt Q15119); experiment: Inhibitory action of PDHK2 activity in vitro (residual PDH activity after PDHK reaction); type: biochemical; details: for IC50: PDH/hPDHK2 complex solution, PDHK reaction at room temperature for 45 min, NADH absorbance at 340 nm, read-out: kPDK2 IC50
Procedure: as §1
(Inhibitory Action of PDHK2 Activity)
In the case of human PDHK2 (hPDHK2, NCBI Reference Database Accession number NM_002611.4), modified hPDHK2 cDNA wherein FLAG-Tag sequence was added to the N terminus of hPDHK2 cDNA clone (pReceiver-M01/PDK2-GeneCopoeia) as the base was prepared by PCR and ligated to the NdeI/EcoRI site of pET-17b vector. The recombinant construct was transformed into Escherichia coli DH5a. The recombinant clones were identified, and plasmid DNA was isolated and subjected to the DNA sequence analysis. One clone which had the expected nucleic acid sequence was selected for expression work.
For expression of hPDHK2 activity, Escherichia coli strain BL21(DE3) cells were transformed with the pET17b vector containing modified hPDHK2 cDNA. The Escherichia coli were grown to an optical density 0.6 ([…]) at 30° C. Protein expression was induced by the addition of 500 μmol/L isopropyl-β-thiogalactopyranoside. The Escherichia coli were cultured at 20° C. for 17-18 hr and harvested by centrifugation. The harvested Escherichia coli was resuspended in a suspension buffer (20 mmol/L HEPES-NaOH, 500 mmol/L sodium chloride, 1% ethylene glycol, 0.1% pluronic F-68 (pH 8.0), cOmplete, EDTA-free (pH 8.0)), and disrupted by a microfluidizer. The precipitate was removed by centrifugation and the supernatant was added to DDDDK-tagged Protein PURIFICATION GEL. DDDDK-tagged Protein PURIFICATION GEL was washed with a washing buffer (20 mmol/L HEPES-NaOH, 500 mmol/L sodium chloride, 1% ethylene glycol, 0.1% pluronic F-68 (pH 8.0)) and the bound protein was eluted with elution buffer 1 (20 mmol/L HEPES-NaOH, 100 μg/mL peptide (amino acid sequence DYKDDDDK) (SEQ ID NO: 1), 500 mmol/L sodium chloride, 1% ethylene glycol, 0.1% pluronic F-68 (pH 8.0)). The eluted fractions containing FLAG-Tagged protein were pooled, concentrated by an ultrafiltration method, added to a gel filtration column (HiLoad 26/60 Superdex 200), and eluted with elution buffer 2 (20 mmol/L HEPES-NaOH, 150 mmol/L sodium chloride, 0.5 mmol/L ethylenediaminetetraacetic acid (EDTA), 1% ethylene glycol, 0.1% pluronic F-68 (pH 8.0)). The eluted fractions were pooled and preserved at −80° C.
as §2, with “PDH” for “PDH (porcine heart PDH complex, Sigma P7032)”, “hPDHK2” for “hPDHK1”, “PDH/hPDHK2” for “PDH/hPDHK1”
The test compounds were diluted with DMSO. To measure an inhibitory action of the test compound on the PDHK activity in the PDH/hPDHK2 complex solution, PDH/hPDHK2 complex solution (20 μL), test compound (1.5 μL) and 1.06 μmol/L ATP (diluted with assay buffer) (8.5 μL) were added to a 384 well microplate and PDHK reaction was performed at room temperature for 45 min (test compound well). DMSO (1.5 μL) was added to control wells instead of test compound. In addition, DMSO (1.5 μL) was added to blank wells instead of the test compound, and PDH solution was added instead of the PDH/hPDHK2 complex solution. To measure an inhibitory action of the test compound on the PDHK activity inherent in the PDH solution, a test compound was added and the PDH solution instead of the PDH/hPDHK2 complex solution was added to a blank+test compound well.
Then, 10 μL of substrates (5 mmol/L sodium pyruvate, 5 mmol/L Coenzyme A, 12 mmol/L NAD, 5 mmol/L thiamine pyrophosphate, diluted with assay buffer) were added. The mixture was incubated at room temperature for 90 min, and the residual PDH activity was measured. […]

Sequence of human PDHK1 (hPDHK1) (Q15118 29-436): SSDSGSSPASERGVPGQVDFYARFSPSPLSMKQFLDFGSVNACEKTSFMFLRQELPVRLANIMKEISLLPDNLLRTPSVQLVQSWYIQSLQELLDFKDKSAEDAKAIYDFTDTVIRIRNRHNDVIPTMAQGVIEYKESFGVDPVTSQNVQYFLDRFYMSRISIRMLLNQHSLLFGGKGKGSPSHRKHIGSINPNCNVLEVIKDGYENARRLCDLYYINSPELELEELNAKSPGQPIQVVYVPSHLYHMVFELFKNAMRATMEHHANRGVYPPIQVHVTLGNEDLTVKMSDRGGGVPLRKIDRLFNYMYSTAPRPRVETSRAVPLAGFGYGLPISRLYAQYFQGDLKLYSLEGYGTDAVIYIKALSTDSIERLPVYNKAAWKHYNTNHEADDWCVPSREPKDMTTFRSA

SMILES | IC50 (human PDHK1 (hPDHK1)) [nM] | IC50 (human PDHK2 (hPDHK2)) [nM] | inhibition at 0.003 µM (human PDHK1 (hPDHK1)) [%] | hPDHK2 inhibitory rate at the lowest concentration of the test compound (human PDHK2 (hPDHK2); lowest concentration of the test compound in the assay (<3 nmol/L), shown when IC50 value could not be calculated) [%]
C[C@H]1CN(C(=O)c2c3cc(F)ccc3nn2C)Cc2cnc([C@@](C)(O)C(F)(F)F)n21 [Example 1] | 6 | 5 |  | 
C[C@H]1CN(C(=O)c2ccc(F)cc2C2CC2)Cc2cnc([C@@](C)(O)C(F)(F)F)n21 [Example 27] | 9 | 8 |  | 
C[C@H]1CN(C(=O)c2ccnc(-c3ccc(F)cc3)c2)Cc2cnc([C@@](C)(O)C(F)(F)F)n21 [Example 48, (2-(4-fluorophenyl)pyridin-4-yl)((S)-5-methyl-3-((R)-1,1,1-trifluoro-2-hydroxypropan-2-yl)-5,6-dihydroimidazo[1,5-a]pyrazin-7(8H)-yl)methanone] | < 3 | < 3 | 88 | 81
C[C@H]1CN(C(=O)c2[nH]nc(C3CC3)c2Cl)Cc2onc([C@@](C)(O)C(F)(F)F)c21 [Example 112] | 3 | 5 |  | 
C[C@H]1CN(C(=O)c2cc(-c3ccc(F)cc3F)nn2C)Cc2cnc([C@@](C)(O)C(F)(F)F)n21 [Example 47] | < 3 | 4 | 53 | 
C[C@H]1CN(C(=O)c2ccnc(N3CCC(F)(F)CC3)c2)Cc2cnc([C@@](C)(O)C(F)(F)F)n21 [Example 95] | 6 | 15 |  | 
Cc1c(-c2ccc(C#N)cc2)nn(C)c1C(=O)N1Cc2cnc([C@@](C)(O)C(F)(F)F)n2[C@@H](C)C1 [Example 76] | 6 | 9 |  | 
C[C@H]1CN(C(=O)c2cnn(-c3ccc(F)cc3)c2C(F)(F)F)Cc2cnc([C@@](C)(O)C(F)(F)F)n21 [Example 17] | 8 | 7 |  | 
C[C@H]1CN(C(=O)c2ccc(F)c(-c3ccncc3F)c2)Cc2cnc([C@@](C)(O)C(F)(F)F)n21 [Example 82] | 5 | 7 |  | 
C[C@H]1CN(C(=O)c2cc3n(n2)CCO3)Cc2onc([C@@](C)(O)C(F)(F)F)c21 [Example 99] | 8 | 12 |  | 
C[C@H]1CN(C(=O)c2ccnc(-c3ccc(F)cc3F)c2)Cc2cnc([C@@](C)(O)C(F)(F)F)n21 [Example 88] | 3 | 4 |  | 
C[C@H]1CN(C(=O)c2ccc(C#N)c(-n3cccn3)c2)Cc2cnc([C@@](C)(O)C(F)(F)F)n21 [Example 74] | 6 | 11 |  | 
C[C@H]1CN(C(=O)c2ccc(-c3ccc(F)cc3)cn2)Cc2cnc([C@@](C)(O)C(F)(F)F)n21 [Example 42] | 4 | 5 |  | 
C[C@H]1CN(C(=O)c2ccc(F)c(-c3ccncc3C#N)c2)Cc2cnc([C@@](C)(O)C(F)(F)F)n21 [Example 84] | 5 | 11 |  | 
C[C@H]1CN(C(=O)c2ccc3c(c2)OC(F)(F)O3)Cc2cnc([C@@](C)(O)C(F)(F)F)n21 [Example 11, (2,2-difluorobenzo[d][1,3]dioxol-5-yl)((S)-5-methyl-3-((R)-1,1,1-trifluoro-2-hydroxypropan-2-yl)-5,6-dihydroimidazo[1,5-a]pyrazin-7(8H)-yl)methanone] | 14 | 15 |  | 
CC(=O)N1CCc2ccccc2[C@H]1C(=O)N1Cc2onc([C@@](C)(O)C(F)(F)F)c2[C@@H](C)C1 [Example 107] | 5 | 6 |  | 
C[C@H]1CN(C(=O)c2nn(C)c3cc(F)cc(F)c23)Cc2cnc([C@@](C)(O)C(F)(F)F)n21 [Example 7] | 8 | 10 |  | 
C[C@H]1CN(C(=O)c2n[nH]c3ccccc23)Cc2onc([C@@](C)(O)C(F)(F)F)c21 [Example 101] | < 3 | 4 | 69 | 
C[C@H]1CN(C(=O)c2nn(C)c3cc(F)c(F)cc23)Cc2cnc([C@@](C)(O)C(F)(F)F)n21 [Example 10, (5,6-difluoro-1-methyl-1H-indazol-3-yl)((S)-5-methyl-3-((R)-1,1,1-trifluoro-2-hydroxypropan-2-yl)-5,6-dihydroimidazo[1,5-a]pyrazin-7(8H)-yl)methanone] | 9 | 13 |  | 
